This passage reports IC50 results from ChEMBL document CHEMBL3132766, “Flavans from Desmos cochinchinensis as potent aromatase inhibitors” (Medchemcomm, 2013).

In experiment [1] the test system is HepG2. Kind of experiment: Cytotoxicity against human HepG2 cells by MTT assay. It counts as functional, cell-based.
Experiment [2] in a line: Cytotoxicity against human MOLT3 cells by XTT assay. In kind it is functional, cell-based. Particulars: MOLT-3; call rule not given here.
Experiment [3] concerns the target T1, Aromatase (Homo sapiens, UniProt P11511).
T1 sequence (P11511 whole entry): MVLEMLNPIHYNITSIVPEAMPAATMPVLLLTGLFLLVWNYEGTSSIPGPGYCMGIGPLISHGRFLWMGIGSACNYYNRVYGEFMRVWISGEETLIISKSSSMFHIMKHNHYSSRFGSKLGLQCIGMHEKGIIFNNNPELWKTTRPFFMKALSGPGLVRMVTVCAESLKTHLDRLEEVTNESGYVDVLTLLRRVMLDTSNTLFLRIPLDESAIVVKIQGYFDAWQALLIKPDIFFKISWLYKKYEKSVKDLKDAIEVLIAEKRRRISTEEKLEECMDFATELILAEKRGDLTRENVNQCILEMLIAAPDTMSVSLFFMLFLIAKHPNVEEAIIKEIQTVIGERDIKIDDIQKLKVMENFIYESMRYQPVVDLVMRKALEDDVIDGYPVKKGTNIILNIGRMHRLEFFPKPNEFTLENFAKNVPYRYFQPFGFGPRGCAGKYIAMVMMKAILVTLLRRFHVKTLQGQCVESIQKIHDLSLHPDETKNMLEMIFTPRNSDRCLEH
Kind of experiment: Inhibition of aromatase (unknown origin).

The target in experiment [4] is T1, Aromatase. Put plainly: Inhibition of human recombinant aromatase expressed in baculovirus infected insect cells using O-benzylfluorescein benzyl ester as substrate after 30 mins.
The subject of experiment [5] is A549. Kind of experiment: Cytotoxicity against human A549 cells by MTT assay. In kind it is functional, cell-based.
Experiment [6] is described as follows: Cytotoxicity against human HuCCa1 cells by MTT assay. In kind it is functional, cell-based, HuCC-A1.
Setting [7] is: Homo sapiens, HepG2, read-out: IC50.
Where [8] appears, read: Homo sapiens, A549, read-out: IC50.
Setting [9] is: Homo sapiens, HuCC-A1, read-out: IC50.

As for `COc1cc([C@@H]2c3cc4c(cc3[C@@H](O[C@@H]3O[C@@H]5CO[C@@H](C)O[C@H]5[C@H](O)[C@H]3O)[C@H]3COC(=O)[C@H]23)OCO4)cc(OC)c1O` [ETOPOSIDE], the IC50 was found to be 22.1 µM in experiment [1] (setting [7]) and 0.03 µM in experiment [2].
`O=C1C[C@@H](c2ccccc2)Oc2cc(O)cc(O)c21` [PINOCEMBRIN] displayed an IC50 in experiment [3] of 0.9 µM.
In experiment [3], `COc1cc(O)c([C@@H]2C[C@@H](c3ccccc3)Oc3c(C=O)c(O)cc(O)c32)c(O)c1C(=O)/C=C/c1ccccc1` yielded an IC50 of 3.3 µM.
With `COc1cc(O)c2c(c1C)O[C@H](c1ccccc1)CC2=O`, in experiment [4], the IC50 was 0.6 µM.
As for `COc1cc(O)c(C=O)c2c1[C@H](O)C[C@@H](c1ccccc1)O2`, the IC50 entry in experiment [1] (hepg2) was “Not Active”; in experiment [2], 24.3 µM; in experiment [5] (setting [8]) it was 147 µM; in experiment [6] (setting [9]), 130 µM; in experiment [4], 0.04 µM.
As for `COc1c(C)c(OC)c2c(c1C)O[C@H](c1ccccc1)C[C@H]2O`, the IC50 in experiment [1] (setting [7]) was 135 µM; in experiment [2] it was 63.5 µM; in experiment [5] (a549), “Not Active”; in experiment [6] (hucc-a1), “Not Active”; in experiment [4], 10.7 µM.
With `COc1c(C)c(O)c(C=O)c2c1[C@H](OC)C[C@@H](c1ccccc1)O2`, the IC50 in experiment [1] (setting [7]) was 145 µM; in experiment [2], 28.5 µM; in experiment [5] (setting [8]) it was 104 µM; in experiment [6] (setting [9]) it was 125 µM; in experiment [4], 0.15 µM.
For the molecule `COc1c(C)c(O)c(C=O)c2c1[C@H](O)C[C@@H](c1ccccc1)O2`, the IC50 in experiment [1] (setting [7]) was 143 µM; in experiment [2], 29.8 µM; in experiment [5] (a549), “Not Active”; in experiment [6] (setting [9]), 143 µM; in experiment [4], 0.08 µM.
In the case of `COc1cccc2c1C(=O)c1c(O)c3c(c(O)c1C2=O)C[C@@](O)(C(=O)CO)C[C@@H]3O[C@H]1C[C@H](N)[C@H](O)[C@H](C)O1` [DOXORUBICIN], the IC50 in experiment [6] (setting [9]) worked out at 1.1 µM.
As for `COc1c(C)c(O)c2c(c1C)O[C@H](c1ccccc1)CC2=O`, the IC50 entry in experiment [1] (hepg2) is “Not Active”; in experiment [2] it was 72 µM; in experiment [5] (a549) it was “Not Active”; in experiment [6] (hucc-a1), “Not Active”; in experiment [4], more than 12.5 µM.
As to `COc1cc(O)c(C=O)c2c1[C@H](OC)C[C@@H](c1ccccc1)O2`, the IC50 result in experiment [1] (hepg2) was “Not Active”; in experiment [2] it was 41.3 µM; in experiment [5] (a549), “Not Active”; in experiment [6] (setting [9]), 140 µM; in experiment [4] it was 0.09 µM.
In turn, `COc1cc(O)c([C@H]2C[C@@H](c3ccccc3)Oc3c(C=O)c(O)cc(O)c32)c(O)c1C(=O)/C=C/c1ccccc1` registered an IC50 in experiment [3] of 1.8 µM.
`COc1c(C)c(OC)c2c(c1C=O)O[C@H](c1ccccc1)C[C@H]2O`: the IC50 is 99.6 µM in experiment [1] (setting [7]); 57.4 µM in experiment [2]; 137 µM in experiment [5] (setting [8]); “Not Active” in experiment [6] (hucc-a1); 1.01 µM in experiment [4].
